We go through 8 molecules from patent US20240376097A1, “BCL-2 Inhibitor” (BeiGene Ltd., priority 2020, published 2024).

Experiment [1] deals with Recombinant human Bcl-2 protein (Homo sapiens (Human), UniProt P10415). The experiment is described as follows: Bcl-2 TR-FRET Assay. It counts as binding. Particulars: Bcl-2 wild type, TR-FRET; read-out: Biochemical assay (IC50, nM) Bcl-2 WT. In outline:
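0.05 nM recombinant Bcl-2 preincubated 0.5 h at room temperature with 10-point compound dilutions (top final 1, 0.1, 0.02 or 0.01 uM) in pH 7.5 phosphate buffer. FITC-Bak peptide (0.5 nM) and anti-6His Tb cryptate then added for 1 h. TR-FRET read; IC50 from four-parameter logistic fit.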

Experiment [2] addresses recombinant human Bcl-2-G101V protein (Homo sapiens (Human), UniProt P10415, G101V). Put plainly: Bcl-2-G101V TR-FRET Assay. The class given is binding. The following applies: Bcl-2 G101V mutant, TR-FRET; read-out: Biochemical assay (IC50, nM) Bcl-2 G101V. In outline:
(§1)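 Ex337/em490 & 520 nm TR-FRET; % inhibition of Bcl-2-G101V–ligand interaction from 490:520 ratio vs. increasing compound conc.; IC50 by 4-parameter logistic fit.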
(TR-FRET usually uses a lanthanide donor and a delayed reading to cut background.)

In experiment [3] the test system is recombinant human Bcl-2-G101V protein. Put plainly: Bcl-2-G101V TR-FRET Assay. It counts as binding. The following applies: ratio of biochemical IC50 Bcl-2 G101V / Bcl-2 WT. In a few lines: as §1
The subject of experiment [4] is RS4;11 (BCL-2 dependent acute lymphoblastic leukemia cell line). Put plainly: RS4;11 Cell Proliferation Assay. The class given is cell-based. The following applies: Homo sapiens, RS4-11, RS4;11 cells, read-out: Cellular proliferation assay (IC50, nM) RS4. Here is the method:
Biological Example: RS4;11 Cell Proliferation Assay
(§2) The BCL-2 dependent acute lymphoblastic leukemia (ALL) cell line, RS4;11, was used to study the cellular potency of BCL-2 inhibitors. The cells (ATCC, CRL-1873) were cultured in RPMI-1640 complete medium (RPMI-1640 medium, HEPES (Gibco, 22400-105) supplemented with 10% fetal bovine serum (FBS) (Gibco, 10099-1441), 100 unit/ml penicillin and 100 μg/ml streptomycin (Gibco, 15140122)) and maintained in a humidified chamber at 37° C. containing 5% CO2. Each compound was serially diluted with 1 μM as the maximum concentration. To test the apoptotic effect of the compounds, the cells were seeded at 50,000 in 180 μl per well in 96-well plates and treated with 10-point dilution series of each compound for 48 hrs at 37° C. Cell viability was assessed after the treatment using CellTiter-GLO luminescent assay (Promega) according to the manufacturer's recommendations. Briefly, 30 μl of CellTiter-GLO reagent was added into 200 μl of cell culture. Mixture was agitated on an orbital shaker for 5 min to ensure cell lysis followed by 7 min incubation at room temperature to allow development and stabilization of luminescent signals, which corresponded to the quantity of ATP and thus the quantity of metabolically active cells. Luminescent signals were measured using PHERAstar FS reader (BMG). Mean IC50 values were determined with GraphPad Prism software.

For experiment [5], the system named is BCL-2 G101V knock-in cell line H96 (derive from RS4;11). The experiment is described as follows: Bcl 2-G101V Knock-In RS4;11 Cell Proliferation Assay. It counts as cell-based. The following applies: Homo sapiens, RS4;11 Bcl-2 G101V knock-in clone H96, 48 hrs, CellTiter-GLO, read-out: Cellular proliferation assay (IC50, nM) RS4. Here is the method: Biological Example: Bcl 2-G101V Knock-In RS4;11 Cell Proliferation Assay
(1) RS4;11 H96 Bcl 2-G101V Knock-In Cell Line Generation
Briefly, RS4;11 BCL2-G101V knock-in cell pool was generated using Crisper/Cas9 gene editing system and the BCL2-G101V knock-in single clone H96 was picked from the knock-in cell pool and validated by WES (whole exome-sequencing) and RNA-seq.
The BCL-2 dependent acute lymphoblastic leukemia (ALL) cell line, RS4;11(ATCC, CRL-1873), was cultured in RPMI-1640 complete medium (RPMI-1640 medium, HEPES (Gibco, 22400-105) supplemented with 10% fetal bovine serum (FBS) (Gibco, 10099-1441), 100 unit/ml penicillin and 100 μg/ml streptomycin (Gibco, 15140122)) and maintained in a humidified chamber at 37° C. containing 5% CO2.
To obtain BCL2-G101V knock-in cell pool, RS4;11 was co-transfected with the Cas9-gRNA which also expressed GFP label, and the Donor gene which contained the BCL2-G101V mutant sequence. After 48 hrs of electroporation, the GFP positive cells were collected through FACSAriaIII cell sorting system. Cell pool was recovered for 3 days and then cultured under 2 nM ABT-199 stress for 4 weeks. […] Then cells were plated in 96 well U-plate with 1 cell/well for 10000 wells for single clone selection. After 3-5 weeks growing, clones were successively screened by PCR sequencing. And three BCL2-G101V knock-in clones: H96, H142 and H233, have been picked out.
Three clones were validated by genome DNA and cDNA(mRNA) PCR sequencing, and BCL-2, BCL-xL and MCL-1 expression using Western Blot. The H96 clone was also validated by WES (whole exome-sequencing) and RNA-seq.
(2) Bcl 2-G101V Knock-In RS4;11 Cell Proliferation Assay
as §2, with “G101V knock-in” for “dependent acute lymphoblastic leukemia (ALL)”, “line H96 (derive from RS4;11) were” for “line, RS4;11, was”, “cells” for “cells (ATCC, CRL-1873)”, “μM or 10 μM” for “μM”, “90” for “180”, “100” for “200”
(ATP-based viability assays read luminescence as a measure of living cells.)

Regarding `CC(C)c1ccccc1[C@@H]1CN(C2CC2)CCN1C1CC2(CCN(c3ccc(C(=O)NS(=O)(=O)c4ccc(NC[C@H]5CC[C@](C)(O)CC5)c([N+](=O)[O-])c4)c(Oc4cnc5[nH]ccc5c4)c3)CC2)C1` (single isomer, unassigned) [Example 4, 2-((1H-pyrrolo[2,3-b]pyridin-5-yl)oxy)-4-(2-((R or S)-4-cyclopropyl-2-(2-isopropylphenyl)piperazin-1-yl)-7-azaspir[3.5]nonan-7-yl)-N-((4-((((1r,4r)-4-hydroxy-4-methylcyclohexyl)methyl)amino)-3-nitrophenyl)sulfonyl)benzamide], the IC50 in experiment [1] stood at 0.045 nM; in experiment [2], 1.6 nM; in experiment [4] it was 0.87 nM; in experiment [5], 9.56 nM. Moreover, the “Ratio of Bcl-2 G101V/WT” value in experiment [3] is given as 35.6.

With `COCCN1CCN(C2CC3(CCN(c4ccc(C(=O)NS(=O)(=O)c5ccc(NC[C@H]6CC[C@](C)(O)CC6)c([N+](=O)[O-])c5)c(Oc5cnc6[nH]ccc6c5)c4)CC3)C2)[C@@H](c2ccccc2C(C)C)C1` (single isomer, unassigned) [Example 13a, 2-((1H-pyrrolo[2,3-b]pyridin-5-yl)oxy)-N-((4-((((1r,4r)-4-hydroxy-4-methylcyclohexyl)methyl)amino)-3-nitrophenyl)sulfonyl)-4-(2-((S or R)-2-(2-isopropylphenyl)-4-(2-methoxyethyl)piperazin-1-yl)-7-azaspiro[3.5]nonan-7-yl)benzamide], the IC50 in experiment [1] came out at 0.038 nM; in experiment [2], 3.6 nM; in experiment [4], 10.5 nM; in experiment [5], 87.4 nM. Moreover, the “Ratio of Bcl-2 G101V/WT” value in experiment [3] was determined as 94.7.

With `CC(C)c1ccccc1[C@@H]1CN(Cc2cnn(C)c2)CCN1C1CC2(CCN(c3ccc(C(=O)NS(=O)(=O)c4ccc(NC[C@H]5CC[C@](C)(O)CC5)c([N+](=O)[O-])c4)c(Oc4cnc5[nH]ccc5c4)c3)CC2)C1` (single isomer, unassigned) [Example 22b, 2-((1H-pyrrolo[2,3-b]pyridin-5-yl)oxy)-N-((4-((((1r,4r)-4-hydroxy-4-methylcyclohexyl)methyl)amino)-3-nitrophenyl)sulfonyl)-4-(2-((S or R)-2-(2-isopropylphenyl)-4-((1-methyl-1H-pyrazol-4-yl)methyl)piperazin-1-yl)-7-azaspiro[3.5]nonan-7-yl)benzamide], the IC50 in experiment [1] stood at 0.038 nM; in experiment [2], 1.9 nM; in experiment [4] it was 7.6 nM; in experiment [5], 57.3 nM. In addition, in experiment [3], the “Ratio of Bcl-2 G101V/WT” value was 50.0.

On to `COc1ccc(CN2CCN(C3CC4(CCN(c5ccc(C(=O)NS(=O)(=O)c6ccc(NCC7CCOCC7)c([N+](=O)[O-])c6)c(Oc6cnc7[nH]ccc7c6)c5)CC4)C3)[C@H](c3ccccc3C(C)C)C2)cc1` (single isomer, unassigned) [Example 69, (R or S)-2-((1H-pyrrolo[2,3-b]pyridin-5-yl)oxy)-4-(2-(2-(2-isopropylphenyl)-4-(4-methoxybenzyl)piperazin-1-yl)-7-azaspiro[3.5]nonan-7-yl)-N-((3-nitro-4-(((tetrahydro-2H-pyran-4-yl)methyl)amino)phenyl)sulfonyl) benzamide], for which the IC50 is 0.041 nM in experiment [1], 0.37 nM in experiment [2], 0.47 nM in experiment [4] and 2 nM in experiment [5]. Also, the “Ratio of Bcl-2 G101V/WT” value in experiment [3] stood at 8.9.

Turning to `CCN1CCN(C2CC3(CCN(c4ccc(C(=O)NS(=O)(=O)c5ccc(NC[C@H]6CC[C@](C)(O)CC6)c([N+](=O)[O-])c5)c(Oc5cnc6[nH]ccc6c5)c4)CC3)C2)C(c2ccccc2C(C)C)C1` (stereo partly shown) [Example 2], the IC50 in experiment [1] is 0.011 nM; in experiment [2] it was 0.25 nM; in experiment [4] it was 0.53 nM; in experiment [5], 3.94 nM. In experiment [3], the “Ratio of Bcl-2 G101V/WT” value was determined as 22.7.

For `CC(C)c1ccccc1C1CN(C2CCCCC2)CCN1C1CC2(CCN(c3ccc(C(=O)NS(=O)(=O)c4ccc(NC[C@H]5CC[C@](C)(O)CC5)c([N+](=O)[O-])c4)c(Oc4cnc5[nH]ccc5c4)c3)CC2)C1` (stereo partly shown) [Example 9], the IC50 is 0.034 nM in experiment [1], 0.52 nM in experiment [2], 0.51 nM in experiment [4] and 4.37 nM in experiment [5]. Also, in experiment [3], the “Ratio of Bcl-2 G101V/WT” value was determined as 15.3.

Turning to `COc1ccc(CN2CCN(C3CC4(CCN(c5ccc(C(=O)NS(=O)(=O)c6ccc(NC[C@H]7CC[C@](C)(O)CC7)c([N+](=O)[O-])c6)c(Oc6cnc7[nH]ccc7c6)c5)CC4)C3)C(c3ccccc3C)C2)cc1` (stereo partly shown) [Example 34, 2-((1H-pyrrolo[2,3-b]pyridin-5-yl)oxy)-N-((4-((((1r,4r)-4-hydroxy-4-methylcyclohexyl)methyl)amino)-3-nitrophenyl)sulfonyl)-4-(2-(4-(4-methoxybenzyl)-2-(o-tolyl)piperazin-1-yl)-7-azaspiro[3.5]nonan-7-yl)benzamide], the IC50 was 0.049 nM in experiment [1], 1.8 nM in experiment [2], 1.3 nM in experiment [4] and 13.9 nM in experiment [5]. In experiment [3], the “Ratio of Bcl-2 G101V/WT” value turned out to be 36.7.

Take `COc1ccc(CN2CCN(C3CC4(CCN(c5ccc(C(=O)NS(=O)(=O)c6ccc(NC[C@H]7CC[C@](C)(O)CC7)c([N+](=O)[O-])c6)c(Oc6cnc7[nH]ccc7c6)c5)CC4)C3)C(c3ccccc3CN3CCOCC3)C2)cc1` (stereo partly shown) [Example 37, 2-((1H-pyrrolo[2,3-b]pyridin-5-yl)oxy)-N-((4-((((1r,4r)-4-hydroxy-4-methylcyclohexyl)methyl)amino)-3-nitrophenyl)sulfonyl)-4-(2-(4-(4-methoxybenzyl)-2-(2-(morpholinomethyl)phenyl)piperazin-1-yl)-7-azaspiro[3.5]nonan-7-yl)benzamide]: the IC50 in experiment [1] is 0.42 nM; in experiment [2] it was 12 nM; in experiment [4], 77.4 nM; in experiment [5], 289 nM. Also, in experiment [3], the “Ratio of Bcl-2 G101V/WT” value came out at 28.6.
